Source: patent publication US20250381307A1, “RETRO-AAV AND USE IN TREATING NEURODEGENERATIVE DISEASES” (priority 2023, published 2025)

Columns and labels:
[1] = system: hM3Dq or rM3Ds; assay: Locomotion test in macaques with nigral hM3Dq or rM3Ds AAV after CNO; type: in vivo
Protocol: To guide the virus injection in SNr, a guide grid of multiple holes spaced by 1 mm was installed on each subject vertically above the SN. By filling vitamin E in these holes, the accurate coordinates for injection could be obtained from the T1-weighted MRI images (3T Tim Trio scanner, Siemens). Virus injections were performed in nine sites covering the whole SNr, and a total volume of 27 μL virus was unilaterally injected in the right SNr at the speed of 300 nL/min.
The locomotion tests for monkeys were conducted in a custom-made observation cage (100 cm×100 cm×100 cm). The top and front of the cage were made of toughened glass in order to gain a clear view for behavioral recording. Monkeys were habituated to the observation cage by placing them inside for 30 minutes on three separate days.
For monkeys injected with AAV8R12-G88P3-HA-hM3Dq, CNO was intracranially infused into the dorsomedial caudate through the recording chamber. To infuse while the animal was awake, the monkey was trained to sit in a primate chair specially designed with its head fixed to the primate chair by a mask made of thermoplastic materials. Injections were conducted through a 33-Gauge needle connected to a 250 μL syringe via a polyethylene pipe (Hamilton, Neuros). […] The needle was held for 5 minutes for drug diffusion before retraction. For monkeys injected with AAV8R12-G88P7-rM3Ds-2A-EYFP, CNO was infused via intramuscular injection (10 mg/kg). […] Videos capturing the subjects' behavior were recorded for at least 90 minutes. Animal behaviors from 30-90 minutes after saline/CNO infusion were further analyzed and quantified.
For rotation analysis, only movements that occurred lower than 30 cm on the z-axis were counted. To determine the direction of the rotation, we first computed the center for the rotation data in the x-y plane as (x0, y0) by averaging all data points, and then we computed the angle relative to (x0, y0) for each time point by the following formula:
where θi represents the rotating angle at time i, and (xi, yi) represents the x-y coordinate at time i. We then calculated the change of rotating angle as Δθi=θi−θi-1. For right nigral injections, when Δθ<0, the direction of the rotation was anticlockwise and was labeled as a contraversive rotation. When Δθ>0, the direction of the rotation was clockwise and was labeled as an ipsiversive rotation. The raw data were analyzed and plotted through a custom R package. Code is available on Github (github.com/chenyef/PD_ana/blob/main/Behavior_ana.txt).

[2] = target: T1, rM3Ds (Rattus norvegicus, UniProt P08483, A177S/A238G/A489L/DEL261-437/DEL441-478/E258S/I253V/I483M/INS256[…]/K178L/K182A/K255R/K484R/K486H/L173F/L482A/M480V/R171S/R176Q/R179M/S481M/T174R/T181R/T257A/Y148C); assay: 6-OHDA parkinsonian mouse model: open field and rotarod; type: in vivo, C57/BL6 mice; parameters: rM3Ds; 2A-EYFP (C); host or cells: AAV8R12-transduced striatal D1-MSNs of mice and cynomolgus macaques (in vivo and acute slices); conditions: AAV8R12-G88P7-rM3Ds-2A-EYFP, 6-OHDA mice
T1 sequence (P08483 with tags, fused parts or gaps Y148C/R171S/L173F/T174R/R176Q/A177S/K178L/R179M/T181R/K182A/A238G/I253V/K255R/INS256[…]/T257A/E258S/DEL261-437/DEL441-478/M480V/S481M/L482A/I483M/K484R/K486H/A489L): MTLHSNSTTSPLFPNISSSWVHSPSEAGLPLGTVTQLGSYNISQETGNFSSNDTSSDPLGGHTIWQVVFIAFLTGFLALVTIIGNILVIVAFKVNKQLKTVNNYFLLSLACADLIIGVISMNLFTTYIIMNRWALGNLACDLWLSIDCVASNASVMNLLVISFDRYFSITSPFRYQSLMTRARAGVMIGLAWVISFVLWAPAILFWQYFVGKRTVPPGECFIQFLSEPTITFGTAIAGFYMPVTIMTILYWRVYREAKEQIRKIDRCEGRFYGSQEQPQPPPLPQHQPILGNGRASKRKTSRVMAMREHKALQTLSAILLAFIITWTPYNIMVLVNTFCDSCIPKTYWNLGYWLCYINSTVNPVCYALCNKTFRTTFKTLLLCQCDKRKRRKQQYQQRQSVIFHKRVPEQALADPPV
Protocol: Rodent Parkinson's disease mice models were created through bilateral injection of 6-OHDA using the same methods as described in virus injections (Example 3). A total volume of 1 ul 6-OHDA (5 mg/ml, dissolved in sterile saline containing 0.02% ascorbic acid, Sigma) was injected into the striatum at a speed of 100 nL/min. The coordinates for striatum were 0.5 mm anterior, 1.5 mm lateral, 3.2 mm ventral to the bregma. A premedication of desipramine (25 mg/kg, Sigma) was administered to animals prior to injections of 6-OHDA, in order to increase the selectivity and efficacy of 6-OHDA-induced lesions. Mice were supplemented with DietGel (ClearH2O) for one-week post-surgery. All staining and behavioral experiments were performed at least 14 days following surgery, when the amount of dopamine depletion was maximal and stable.
Mice were individually handled for 10-20 seconds per day for at least 5 days to habituate them to the experimenter. The open field test was conducted in a test apparatus (50 cm×50 cm×50 cm) with an HD digital camera (Sony) positioned above the arena. On day one, mice were habituated to the apparatus for 10 minutes. […] The behavioral data were analyzed with ANY-maze software (Stoelting Co.).
Mice were individually handled as described in the open field test. […] Latency to fall for each trial was automatically recorded by the apparatus. […]

## C[N+]1([O-])CCN(C2=Nc3cc(Cl)ccc3Nc3ccccc32)CC1 [CNO, clozapine N-oxide]
[1]; following CNO infusions
  muscle tone by electromyogram recordings: an increase in the muscle tone of the contralateral biceps brachii
[1]; intracranial (hM3Dq) or systemic (rM3Ds) CNO, n=4 monkeys, mean±SEM, saline 1.004±0.2667
  contraversive rotations (FIG. 10C): 6.649±1.662
[1]; n=4 monkeys, saline 37.43±3.264, not significant
  velocity of ipsiversive rotations (FIG. 10H): 41.37±6.566
[1]; n=4 monkeys, saline 38.42±5.465
  speed during contraversive rotations (FIG. 10G): 46.98±6.669
[1]; n=4 monkeys, saline 68.42±10.7
  time in the top portion of the observing cage (FIG. 10D): 33.74±2.641
[1]; n=4 monkeys, saline 71.53±15.4, not significant
  total distance (FIG. 10F): 97.37±19.41
[1]; n=4 monkeys, saline 107.1±2.322, not significant
  immobile time (FIG. 10E): 89.13±8.379
[1]; systemic CNO, unilateral AAV8R12-G88P7-rM3Ds-2A-EYFP
  rotations 2.5 years after the nigral injections: increased contraversive rotations
[2]; CNO
  motor skill in rotarod test: partially rescued the motor skill deficit
[2]; systemic CNO
  spontaneous movement in an open field: drastically reversed the dyskinesia-like phenotype of PD mice
